Source: patent US4902710A, “Serotonin and norepinephrine uptake inhibitors” (Eli Lilly and Company, priority 1988, dated 1990)
Counter-ions that a name gives are not always drawn.

Tests used:
[1] = system: norepinephrine (NE) uptake, cortical synaptosomes; test: Synaptosomal uptake of 14C-l-norepinephrine (14C-NE) in rat cerebral cortex synaptosomes; type: biochemical, Male Sprague-Dawley rats; conditions: for IC50: inhibition of norepinephrine uptake in vitro, concentration needed to inhibit 50%; for percent inhibition NE (numbers in parentheses): at 1000 nM, compounds which failed to achieve 50% inhibition by that concentration
Protocol: (§1) This general procedure is set forth by Wong et al., in Drug Development Research 6:397-403 (1985).
(§2) Male Sprague-Dawley rats (110-150 g) from Harlan Industries (Cumberland, Id.) were fed a Purina Chow ad libitum for at least 3 days before being used in the studies. Rats were killed by decapitation. Whole brains were removed and dissected. Cerebral cortex was homogenized in 9 volumes of a medium containing 0.32M sucrose and 10 mM glucose. Crude synaptosomal preparations were isolated after differential centrifugation at 1,000 g for 10 min. and 17,000 g for 28 min. The final pellets were suspended in the same medium and kept in ice until use within the same day.
(§3) Synaptosomal uptake of ^3 H-serotonin(^3 H-5-hydroxytryptamine, ^3 H-5HT) and ^14 C-l-norepinephrine (^14 C-NE) was determined as follows. Cortical synaptosomes (equivalent to 1 mg of protein) were incubated at 37° C. for 5 min in 1 ml of Krebs-bicarbonate medium containing also 10 mM glucose, 0.1 mM iproniazid, 1 mM ascorbic acid, 0.17 mM EDTA, […] and 100 nM^14 C-NE. The reaction mixture was immediately diluted with 2 ml of ice-chilled Krebs-bicarbonate buffer and filtered under vacuum with a cell harvester (Brandel, Gaithersburg, Md.). Filters were rinsed twice with approximately 5 ml of ice-chilled 0.9% saline and were transferred to a counting vial containing 10 ml of scintillation fluid (PCS, Amersham, Arlington Heights, Ill.). Radioactivity was measured by a liquid scintillation spectrophotometer. Accumulation of ^3 H-5HT and ^14 C-NE at 4° C. represented the background and was subtracted from all samples.

[2] = system: serotonin (5HT) uptake, cortical synaptosomes; test: Synaptosomal uptake of 3H-serotonin (3H-5HT) in rat cerebral cortex synaptosomes; type: biochemical, Male Sprague-Dawley rats; conditions: for IC50: inhibition of 5HT uptake in vitro, concentration needed to inhibit 50%; for percent inhibition 5HT (numbers in parentheses): at 1000 nM, compounds which failed to achieve 50% inhibition by that concentration
Protocol: as §1, §2, §3

norepinephrine uptake = conditions: hydrochloride; cited from earlier work
[3] = system: serotonin (5-hydroxytryptamine) uptake; conditions: hydrochloride salt; cited from earlier work

SMILES	IC50 [1]	IC50 [2]	percent inhibition NE (numbers in parentheses) [1]	further results
CNCCC(Sc1ccc(C)s1)c1ccccc1 (stereo not shown) [Example 7, N-Methyl-3-[(5-methyl-2-thienyl)thio]benzenepropanamine hydrochloride]	300 nM	1000 nM	–	–
CNCCC(Oc1ccccc1C)c1ccccc1.Cl (single isomer, unassigned; (-)) [tomoxetine hydrochloride, (-)-N-methyl-γ-(2-methylphenoxy)benzenepropanamine hydrochloride]	–	–	–	selective norepinephrine uptake inhibition (in words) (norepinephrine uptake): selective inhibitor of norepinephrine uptake
CNCCC(Sc1ccc(C(F)(F)F)cc1)c1ccccc1 (stereo not shown) [Example 3, N-Methyl-3-[[4-(trifluoromethyl)phenyl]thio]benzenepropanamine hydrochloride]	–	110 nM	11%	–
CNCCC(c1ccccc1)S(=O)(=O)c1ccc(C(F)(F)F)cc1 (stereo not shown) [Example 5, N-Methyl-3-[[4-(trifluoromethyl)phenyl]sulfonyl]benzenepropanamine hydrochloride]	–	–	1%	percent inhibition 5HT (numbers in parentheses) [2]: 5%
CNCCC(Sc1cccs1)c1ccccc1 (stereo not shown) [Example 6, N-Methyl-3-(2-thienylthio)benzenepropanamine hydrochloride]	48 nM	1000 nM	–	–
CNCCC(Oc1ccc(C(F)(F)F)cc1)c1ccccc1 (racemic) [fluoxetine, dl-N-methyl-γ-[4-(trifluoromethyl)phenoxy]benzenepropanamine]	–	–	–	selective serotonin uptake inhibition (in words) [3]: selective serotonin (5-hydroxytryptamine) uptake inhibitor
CNCCC(Sc1ccccc1OC)c1ccccc1 (stereo not shown) [Example 1, N-Methyl-3-[(2-methoxyphenyl)thio]benzenepropanamine hydrochloride]	42 nM	270 nM	–	–
CNCCC(Sc1ccccc1C)c1ccccc1 (stereo not shown) [Example 2, hydrochloride]	80 nM	165 nM	–	–
CNCCC(c1ccccc1)[S+]([O-])c1ccc(C(F)(F)F)cc1 (stereo not shown) [Example 4, hydrochloride]	–	–	6%	percent inhibition 5HT (numbers in parentheses) [2]: 23%
